Each molecule was assayed on RS4;11 cells (assay: RS4;11 cell viability assay (CellTiter Glo)). Conditions: Homo sapiens, RS4-11, 48 h, 50,000 cells per well, 10% human serum, 48 hours; read-out: RS4; 11 EC50 Values.
Type: cell-based, human
Procedure: The acute lymphoblastic leukemia (ALL) cell line RS4;11 was used as the primary human cell line to assess the cellular activity of Bcl-2 selective agents in vitro and their efficacy in vivo.
Cell cytotoxicity EC50 values were assessed using CellTiter Glo (Promega) according to the manufacturer's recommendations. The EC50 values were determined as a percentage of viable cells following treatment compared to the untreated control cells.
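Note: acute lymphoblastic leukemia line RS4,11, EC50 derived from percentage of viable cells after treatment relative to untreated controls, cell killing taken as a measure of Bcl-2 inhibition.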

Question: For `CC1(C)CCC(CN2CCN(c3ccc(C(=O)NS(=O)(=O)c4ccc(OCC5CCOCC5)c(C#N)c4)c(Oc4cnc5[nH]ccc5c4)c3)CC2)=C(c2ccc(Cl)cc2)C1` [Example 284, 4-(4-{[2-(4-chlorophenyl)-4,4-dimethylcyclohex-1-en-1-yl]methyl}piperazin-1-yl)-N-{[3-cyano-4-(tetrahydro-2H-pyran-4-ylmethoxy)phenyl]sulfonyl}-2-(1H-pyrrolo[2,3-b]pyridin-5-yloxy)benzamide], which EC50 is on record?
Answer: 162 nM

Question: `CC1(C)CCC(CN2CCN(c3ccc(C(=O)NS(=O)(=O)c4cnc(OCC5(F)CCN(CC(F)F)CC5)c(Cl)c4)c(Oc4cnc5[nH]ccc5c4)c3)CC2)=C(c2ccc(Cl)cc2)C1` [Example 285, N-[(5-chloro-6-{[1-(2,2-difluoroethyl)-4-fluoropiperidin-4-yl]methoxy}pyridin-3-yl)sulfonyl]-4-(4-{[2-(4-chlorophenyl)-4,4-dimethylcyclohex-1-en-1-yl]methyl}piperazin-1-yl)-2-(1H-pyrrolo[2,3-b]pyridin-5-yloxy)benzamide] was tested. Which EC50 did it give?
Answer: 57.4 nM

Question: `CC1(C)CCC(CN2CCN(c3ccc(C(=O)NS(=O)(=O)c4ccc(OCC5(F)CCOCC5)c(Cl)c4)c(Oc4cnc5[nH]ccc5c4)c3)CC2)=C(c2ccc(Cl)cc2)C1` [Example 286, N-({3-chloro-4-[(4-fluorotetrahydro-2H-pyran-4-yl)methoxy]phenyl}sulfonyl)-4-(4-{[2-(4-chlorophenyl)-4,4-dimethylcyclohex-1-en-1-yl]methyl}piperazin-1-yl)-2-(1H-pyrrolo[2,3-b]pyridin-5-yloxy)benzamide] was tested. Which EC50 did it give?
Answer: 34.5 nM

Question: `CC1(C)CCC(CN2CCN(c3ccc(C(=O)NS(=O)(=O)c4cnc(OCC5CCC(F)(F)CC5)c(Cl)c4)c(Oc4cnc5[nH]ccc5c4)c3)CC2)=C(c2ccc(Cl)cc2)C1` [Example 287, N-({5-chloro-6-[(4,4-difluorocyclohexyl)methoxy]pyridin-3-yl}sulfonyl)-4-(4-{[2-(4-chlorophenyl)-4,4-dimethylcyclohex-1-en-1-yl]methyl}piperazin-1-yl)-2-(1H-pyrrolo[2,3-b]pyridin-5-yloxy)benzamide] was tested. Which EC50 did it give?
Answer: 593 nM

Question: How did the EC50 turn out when `CC1(C)CCC(CN2CCN(c3ccc(C(=O)NS(=O)(=O)c4cnc(OCC5(F)CCN(C(CF)CF)CC5)c(C(F)(F)F)c4)c(Oc4cnc5[nH]ccc5c4)c3)CC2)=C(c2ccc(Cl)cc2)C1` [Example 288, 4-(4-{[2-(4-chlorophenyl)-4,4-dimethylcyclohex-1-en-1-yl]methyl}piperazin-1-yl)-N-{[6-{[1-(1,3-difluoropropan-2-yl)-4-fluoropiperidin-4-yl]methoxy}-5-(trifluoromethyl)pyridin-3-yl]sulfonyl}-2-(1H-pyrrolo[2,3-b]pyridin-5-yloxy)benzamide] was run?
Answer: 390 nM

Question: How did the EC50 turn out when `CC1(C)CCC(CN2CCN(c3ccc(C(=O)NS(=O)(=O)c4cnc(OCCC5CCCO5)c(Cl)c4)c(Oc4cnc5[nH]ccc5c4)c3)CC2)=C(c2ccc(Cl)cc2)C1` (centres unmarked) [Example 289, 4-(4-{[2-(4-chlorophenyl)-4,4-dimethylcyclohex-1-en-1-yl]methyl}piperazin-1-yl)-N-({5-chloro-6-[2-(tetrahydrofuran-2-yl)ethoxy]pyridin-3-yl}sulfonyl)-2-(1H-pyrrolo[2,3-b]pyridin-5-yloxy)benzamide] was run?
Answer: 669 nM

Question: Which EC50 does the source give for `CC1CN(c2ccc(C(=O)NS(=O)(=O)c3ccc(NCC4CCOCC4)c([N+](=O)[O-])c3)c(Oc3cnc4[nH]ccc4c3)c2)CCN1CC1=C(c2ccc(Cl)cc2)CC(C)(C)CC1` (centres unmarked) [Example 290, 4-(4-{[2-(4-chlorophenyl)-4,4-dimethylcyclohex-1-en-1-yl]methyl}-3-methylpiperazin-1-yl)-N-({3-nitro-4-[(tetrahydro-2H-pyran-4-ylmethyl)amino]phenyl}sulfonyl)-2-(1H-pyrrolo[2,3-b]pyridin-5-yloxy)benzamide] here?
Answer: 107 nM

Question: `CC1(C)CCC(CN2CCN(c3ccc(C(=O)NS(=O)(=O)c4ccc(NCCCNC5CC5)c([N+](=O)[O-])c4)c(Oc4cnc5[nH]ccc5c4)c3)CC2)=C(c2ccc(Cl)cc2)C1` [Example 291, 4-(4-{[2-(4-chlorophenyl)-4,4-dimethylcyclohex-1-en-1-yl]methyl}piperazin-1-yl)-N-[(4-{[3-(cyclopropylamino)propyl]amino}-3-nitrophenyl)sulfonyl]-2-(1H-pyrrolo[2,3-b]pyridin-5-yloxy)benzamide] was tested. Which EC50 did it give?
Answer: 16.1 nM

Question: How did the EC50 turn out when `COCCOc1ncc(S(=O)(=O)NC(=O)c2ccc(N3CCN(CC4=C(c5ccc(Cl)cc5)CC(C)(C)CC4)CC3)cc2Oc2cnc3[nH]ccc3c2)cc1Cl` [Example 292, N-{[5-chloro-6-(2-methoxyethoxy)pyridin-3-yl]sulfonyl}-4-(4-{[2-(4-chlorophenyl)-4,4-dimethylcyclohex-1-en-1-yl]methyl}piperazin-1-yl)-2-(1H-pyrrolo[2,3-b]pyridin-5-yloxy)benzamide] was run?
Answer: 889 nM

Question: `CC1(C)CCC(CN2CCN(c3ccc(C(=O)NS(=O)(=O)c4cnc(OCC5CCOCC5)c(F)c4)c(Oc4cnc5[nH]ccc5c4)c3)CC2)=C(c2ccc(Cl)cc2)C1` [Example 293, 4-(4-{[2-(4-chlorophenyl)-4,4-dimethylcyclohex-1-en-1-yl]methyl}piperazin-1-yl)-N-{[5-fluoro-6-(tetrahydro-2H-pyran-4-ylmethoxy)pyridin-3-yl]sulfonyl}-2-(1H-pyrrolo[2,3-b]pyridin-5-yloxy)benzamide] was tested. Which EC50 did it give?
Answer: 287 nM

Question: `COCC(=O)N1CCC(COc2ccc(S(=O)(=O)NC(=O)c3ccc(N4CCN(CC5=C(c6ccc(Cl)cc6)CC(C)(C)CC5)CC4)cc3Oc3cnc4[nH]ccc4c3)cc2Cl)CC1` [Example 294, N-[(3-chloro-4-{[1-(methoxyacetyl)piperidin-4-yl]methoxy}phenyl)sulfonyl]-4-(4-{[2-(4-chlorophenyl)-4,4-dimethylcyclohex-1-en-1-yl]methyl}piperazin-1-yl)-2-(1H-pyrrolo[2,3-b]pyridin-5-yloxy)benzamide] was tested. Which EC50 did it give?
Answer: 125 nM

Question: How did the EC50 turn out when `CN(C)CC(=O)N1CCC(COc2ccc(S(=O)(=O)NC(=O)c3ccc(N4CCN(CC5=C(c6ccc(Cl)cc6)CC(C)(C)CC5)CC4)cc3Oc3cnc4[nH]ccc4c3)cc2Cl)CC1` [Example 295, N-[(3-chloro-4-{[1-(N,N-dimethylglycyl)piperidin-4-yl]methoxy}phenyl)sulfonyl]-4-(4-{[2-(4-chlorophenyl)-4,4-dimethylcyclohex-1-en-1-yl]methyl}piperazin-1-yl)-2-(1H-pyrrolo[2,3-b]pyridin-5-yloxy)benzamide] was run?
Answer: 14.8 nM

Question: With `CC1(C)CCC(CC2CCN(c3ccc(C(=O)NS(=O)(=O)c4ccc(NCC5CCOCC5)c([N+](=O)[O-])c4)c(Oc4cnc5[nH]ccc5c4)c3)CC2)C(c2ccc(Cl)cc2)C1` (centres unmarked) [Example 296, 4-(4-{[2-(4-chlorophenyl)-4,4-dimethylcyclohexyl]methyl}piperidin-1-yl)-N-({3-nitro-4-[(tetrahydro-2H-pyran-4-ylmethyl)amino]phenyl}sulfonyl)-2-(1H-pyrrolo[2,3-b]pyridin-5-yloxy)benzamide] as the molecule, how does the EC50 read?
Answer: 769 nM

Question: How did the EC50 turn out when `CC1(C)CCC(CN2CCN(c3ccc(C(=O)NS(=O)(=O)c4cnc(OCC5CCOCC5)c(C(F)(F)F)c4)c(Oc4cnc5[nH]ccc5c4)c3)CC2)=C(c2ccc(Cl)cc2)C1` [Example 297, 4-(4-{[2-(4-chlorophenyl)-4,4-dimethylcyclohex-1-en-1-yl]methyl}piperazin-1-yl)-2-(1H-pyrrolo[2,3-b]pyridin-5-yloxy)-N-{[6-(tetrahydro-2H-pyran-4-ylmethoxy)-5-(trifluoromethyl)pyridin-3-yl]sulfonyl}benzamide] was run?
Answer: 592 nM

From patent publication US20240043404A1 (AbbVie Inc., priority 2009, published 2024)
